Results from patent publication US8076311B2, “Compositions and methods for modulating the immune system” (priority 2006, dated 2011).
Read-outs that look alike come from different tables or passages of the source.

What was measured:
bone marrow cells = details: after the 15th day of post-irradiation
Protocol: (§1) Thirty six animals were divided into four groups of nine animals each. […] Group 4 was treated as normal animals without any treatment. On days 5, 10 and 15 after irradiation (750) rads three animals from each group was sacrificed. Blood was collected to heparinized tubes, and plasma was removed and following parameters were assayed in the blood. Activity of the enzyme SOD was measured by NBT reduction method of McCord and Fridovich. CAT activity was estimated by the method of Aebi by measuring the rate of decomposition of hydrogen peroxide at 240 nm. Level of GSH was assayed by the method of Moron et al based on the reaction with DTBN. Assay of GPX followed the method of Hafeman based on the degradation of H2O2 in the presence of GSH. The method of Habig was followed to assay the activity of GST based on the rate of increase in the conjugate formation between GSH and CDNB.
The femurs of three above animals were dissected out and bone marrow cells were flushed into phosphate buffered saline (pH 7.4) containing 2% foetal calf serum. The cells were washed and bone marrow viability was determined by the method of Sredni. The results were expressed as number of live bone marrow cells ×10(6)/femur.

lipid peroxidation = details: group III; day 15; liver; p<−0.001
Protocol: The liver of the sacrificed animals were excised quickly washed in ice-cold saline and kept at −70° C. till the day of analysis. On the day of analysis 25% homogenate was pre-pared in tris-HCl buffer (0.1 M, pH 7.4). The homogenate was centrifuged at 12000 rpm for 30 minutes and supernatant was used to determine the tissue lipid peroxide levels (LPO) using the TBA method of Okhawa et al.

irradiated animals = test: Effect of oltipraz on haematological parameters and body weight of irradiated animals; details: for Body weight on day 6: 750 rads, p>0.05
SOD = details: continuous administration; maximum value on the 15th day after irradiation
Protocol: as §1

GSH = details: oltipraz continuously administered group; 15th day; p<0.001
Protocol: as §1

GPX = details: group III; 15th day after irradiation; p<−0.001
Protocol: as §1

CAT = details: continuous administration; maximum on tenth day after irradiation
Protocol: as §1

GST = details: group III; 15th day; p<−0.01
Protocol: as §1

T lymphocyte [1] = details: patients receiving immune stimulating agents; cited from earlier work
T lymphocyte [2] = test: Patient case study: T lymphocyte competence (proliferation in response to PHA); format: in vivo, human
Protocol: (§2) The patient was treated with a Formula 2 compound and blood cell parameters were monitored. The sample size for this experiment was 1, consisting of subject 1. Subject 1 is an immune comprised patient with multiple recurrent infectious bouts requiring hospitalization while in a nearly moribund condition began treatment with the experimental drug Isopentyl adenosine (IPA).
(§3) The subject initially received IPA (see FIGS. 1 and 2). T and B lymphocyte competence as measured by the ability of these cells to proliferate in response to specific stimulating mitogens (PHA for T cells and PWM for B cells) which was monitored on a weekly basis until death. As shown in FIGS. 1 and 2 respectively the subject's T and B lymphocyte competence on was well below normal.

immune comprised patient = test: Patient case study: clinical status; format: in vivo, human
Protocol: The patient was treated with a Formula 2 compound and blood cell parameters were monitored. The sample size for this experiment was 1, consisting of subject 1. Subject 1 is an immune comprised patient with multiple recurrent infectious bouts requiring hospitalization while in a nearly moribund condition began treatment with the experimental drug Isopentyl adenosine (IPA). The subject had been hospitalized with avert life-threatening infections. The subject's total white blood cell counts were in the range of 2200-4900 for the three month period preceding hospitalization. […] The patient was hospitalized from depression, exhaustion, bronchial infection, severe diarrhea, severe weight loss and complete loss of appetite and spiked fever. The patient's weight was 98 pounds.

B lymphocyte = test: Patient case study: B lymphocyte competence (proliferation in response to PWM); format: in vivo, human
Protocol: as §2, §3

[3] = resumed for one week with one-half the recommended dosage
[4] = within 7 days of drug therapy initiation
[5] = within a month of resuming therapy at recommended dose levels
[6] = first period of constant oral doses of IPA

## Cc1c(-c2cnccn2)ssc1=S [oltipraz]
Bone marrow cells; group II (oltipraz pre treated)
  Bone marrow viability: 5.82 ×10^6 cells/femur
Bone marrow cells; group III (oltipraz continuously administered)
  Bone marrow viability: 14.32 ×10^6 cells/femur
Lipid peroxidation
  Lipid peroxidation: 2.12±0.21 nano-moles of MDA formed/mg of protein
Irradiated animals; group II: oltipraz 50 mgs/Kg ten days prior to irradiation
  Body weight on day 6: 21.02±4.14
Irradiated animals; group III (oltipraz continuously administered) compared with group I (radiation alone) and group II
  WBC at later days after irradiation: significantly elevated WBC
Irradiated animals; group III: oltipraz 50 mgs/Kg ten days prior to and fifteen days after irradiation
  Body weight on day 6: 21.10±2.51
Irradiated animals; irradiated mice, oltipraz groups
  Differential count: did not show any significant variation
Irradiated animals; oltipraz 50 mgs/Kg, irradiated mice, versus radiation alone
  Total leukocyte count: increase the count
Irradiated animals; oltipraz continuously administered group, day 6
  Hemoglobin level: 12.42±2.76
SOD
  SOD activity: enhanced
GSH
  Levels of GSH compared with radiation alone treated group: increased almost three times
GPX
  GPX activity: 1927.87±136.06 U/L of haemolysate
CAT
  CAT activity: enhanced
GST
  GST activity: 2.38±0.25 nano-moles of CDNB-GSH conjugate formed

## c1ccc([C@H]2CN3CCSC3=N2)cc1 [Levamisole]
T lymphocyte [1]
  Immune recovery capacity compared with IPA: slower and less dramatic

## CC(C)=CCNc1ncnc2c1ncn2[C@@H]1O[C@H](CO)[C@@H](O)[C@H]1O [IPA, N6-(Δ2-isopentenyl) adenosine]
T lymphocyte [2]; dosage greatly (>3×) increased
  T lymphocyte competence: depression suggesting immunotoxicity
T lymphocyte [2]; [3]
  T lymphocyte competence: spiked dramatically to above the lower limit of the normal range
T lymphocyte [2]; subject 1, oral IPA
  Time to major rapid recovery of T lymphocyte competence after initiation of therapy: less than 7 days
T lymphocyte [2]; [4]
  Level of T lymphocyte competence: above the lower limits-of the normal donor's reactivity
T lymphocyte [2]; [5]
  T lymphocyte competence: well within the range of normal donor reactivity
T lymphocyte [2]; within two weeks of resuming therapy at recommended dose levels
  T lymphocyte competence: nearly within the normal range
Immune comprised patient; [6]
  Fever and diarrhea: completely subsided
  Weight gain: 15 pound
Immune comprised patient; patient terminally moribund at start
  Life after initiation of therapy: 5 months
B lymphocyte; [3]
  B lymphocyte activity: slight rise
B lymphocyte; subject 1, oral IPA
  Time to major rapid recovery of B lymphocyte competence after initiation of therapy: less than 7 days
B lymphocyte; [4]
  Level of B lymphocyte competence: above the lower limits-of the normal donor's reactivity
B lymphocyte; [5]
  B lymphocyte competence: somewhat below lower normal limits
